According to paper PMC8657793, “Synthesis, In Vitro and In Silico Anticancer Activity of New 4-Methylbenzamide Derivatives Containing 2,6-Substituted Purines as Potential Protein Kinases Inhibitors” (International Journal of Molecular Sciences, 2021):

Experiments:
[1] = test system: OKP-GS (renal cell carcinoma); assay: MTT anti-proliferative assay, OKP-GS; assay type: cell-based; details: Homo sapiens, 48 h
Protocol: (§1) To determine the selectivity of the synthesized compounds 7–16 toward various cancer cells and normal human cells, the anti-proliferative activity against K562 (chronic myelogenous leukemia), HL-60 (promyelocytic leukemia), MCF-7 (breast adenocarcinoma), HeLa (cervix carcinoma), HepG2 (human liver cancer), A549 (lung carcinoma), OKP-GS (renal cell carcinoma), and normal cells RPMI 1788 (B lymphocyte, the human cell line) was investigated.
(§2) Each in vitro experiment was performed at least in triplicate and the standard deviation of absorbance was less than 10% of the mean. For the in vitro assays, a stock solution (1% DMSO in the appropriate buffer with the tested compound diluted under sonication) was prepared from which several dilutions were made with the appropriate buffer.
(§3) Human cell lines were obtained from the Institute of Cytology, Russian Academy of Sciences. The cell lines studied were maintained in RPMI 1640 medium (AppliChem, Darmstadt, Germany) supplemented with 20% (HL-60, RPMI 1788) fetal calf serum (HyClone, Cramlington, UK), in DMEM (A 549) and Eagle’s MEM (AppliChem) (MCF7, HeLa) with 10% fetal calf serum (HyClone). Cells were cultivated at 37 °C in a humidified atmosphere of 5% CO2. Cellular sensitivities to synthesized compounds and standards were measured with the MTT assay. Cells were plated in triplicate in 96-well plates (10^5 cells/well for suspended cell cultures and 5 × 10^3 cells/well for monolayer cultures); on the same day (suspended cell cultures) or on the following day (monolayer cultures), compounds were added at the appropriate dilutions. Anti-proliferative activity was studied at concentrations 0.1–50.0 µM. The reference drugs were imatinib, sorafenib and nilotinib. Plates were incubated under standard conditions for 48 h. Thereafter, 10 μL MTT (Sigma) in phosphate-buffered saline (5 mg/mL) was added. The plates were incubated for an additional 4 h and 150 μL dimethylsulphoxide (DMSO) was added to dissolve the formazan crystals. The optical density was read on a HALO MPR-95 Microplate Reader (Dynamica Scientific Ltd., Melbourne, Victoria, Australia) at 570 nm. The antiproliferative effects were taken as degrees of inhibition of tumor cells (%). The average of three parallel measurements was calculated for each concentration of test compound. The degree of cell growth suppression was plotted as a function of the logarithm of the concentration. The half maximal inhibitory concentration (IC50) was determined graphically for active compounds.

[2] = test system: HL-60 (promyelocytic leukemia); assay: MTT anti-proliferative assay, HL-60; assay type: cell-based; details: Homo sapiens, 48 h
Protocol: (§4) For the in vitro assays, a stock solution (1% DMSO in the appropriate buffer with the tested compound diluted under sonication) was prepared from which several dilutions were made with the appropriate buffer.
(§5) Human cell lines were obtained from the Institute of Cytology, Russian Academy of Sciences. […] Plates were incubated under standard conditions for 48 h.

[3] = test system: RPMI 1788 (B lymphocyte, normal human lymphoblastoid cells); assay: MTT assay on normal cells RPMI 1788; assay type: cell-based
Protocol: as §1, §2
as §3, with “Anti-proliferative activity was studied at concentrations 0.1–50.0 µM.” left out

[4] = test system: K562 (chronic myelogenous leukemia); assay: MTT anti-proliferative assay, K562; assay type: cell-based; details: Homo sapiens, 48 h
Protocol: as §4, §5

PDGFRα = target: T1, PDGFRα (Homo sapiens, UniProt P16234); assay: Kinase Selectivity Profiling System TK-1 / ADP-Glo, PDGFRα; assay type: biochemical
T1 construct: purchased Promega
From the text: Considering the presence of a purine ring in the compounds under study, type 1 binding to protein kinases could be expected. We investigated the kinase selectivity of targeted compounds 7–16 against eight receptor tyrosine kinases including EGFR, HER2 and HER4 (epidermal growth factor receptors), IGF1R (insulin-like growth factor 1 receptor), InsR (insulin receptor), KDR (vascular endothelial growth factor receptor 2—VEGFR-2), and PDGFRα and PDGFRβ (platelet-derived growth factor receptors). The assay was performed using the Kinase Selectivity Profiling System TK-1 (Promega, Madison, WI, USA) and ADP-Glo™ Kinase assay kit (Promega, Madison, WI, USA). Kinase activity was measured by quantifying the […] following a kinase reaction. Enzymatic activity inhibition percentage caused by studied compounds was evaluated at the single concentration of 1 μM.
The Abl1 inhibitory activity assay was performed using Abl1 Kinase Enzyme System (Promega, Madison, WI, USA) and ADP-Glo™ Kinase assay kit (Promega, Madison, WI, USA) according to the Technical Manual. The general procedure was as follows: kinase (2.5 ng/reaction) was incubated with substrate (1 μg), compound (0.5 and 10µM) and ATP (50 μM) in a commercial buffer solution with a reaction volume of 5 μL. In every experiment, no-enzyme and no-compound control reactions were included to represent background luminescence (0% activity) and uninhibited kinase activity (100% activity), respectively. The assay 384-well plate was incubated at room temperature for 1 h. Afterwards, 5μL of ADP-Glo reagent was added into each well to stop the reaction and consume the […] within 40 min. At the end, 10 μL of kinase detection reagent was added into the well and incubated for 30 min to produce a luminescence signal. Kinase activity assays were performed in triplicate at each inhibitor concentration. The luminescence was measured with the help of a Tecan Infinite M200 Plate Reader. The luminescence data were analyzed using the computer software, Magellan™. Percent kinase activity (KA) was calculated by subtracting the average no-enzyme control luminescence values from all kinase-containing reactions with or without compound, then converting these net luminescence values to percent activity based on the no-compound control reactions representing 100% kinase activity. Inhibition (I, %) was calculated as 100%-KA.
The single-dose screening of kinase selectivity was performed using Kinase Selectivity Profiling System TK-1 (Promega, Madison, WI, USA) and ADP-Glo™ Kinase assay kit (Promega, Madison, WI, USA) according to Technical Manual. Kinase Selectivity Profiling System TK-1 includes a set of kinases from the tyrosine kinase family (EGFR, HER2, HER4, IGF1R, InsR, KDR, PDGFα, PDGFβ) in 8-tube strip format. The general procedure was as follow: kinase working stock (2 µL/reaction) was incubated with ATP/substrate working stock (1 µL) and compound (1 µM) in a commercial buffer solution with a reaction volume of 5 μL. The reaction conditions and inhibition (%) calculation were the same as in Section 3.3.1. Kinase activity assays were performed in duplicate at each inhibitor.

PDGFRβ = target: T2, PDGFRβ (Homo sapiens, UniProt P09619); assay: Kinase Selectivity Profiling System TK-1 / ADP-Glo, PDGFRβ; assay type: biochemical
T2 construct: purchased Promega
Protocol: (§6) At the end, 10 μL of kinase detection reagent was added into the well and incubated for 30 min to produce a luminescence signal.

HER4 = target: T3, HER4 (Homo sapiens, UniProt Q15303); assay: Kinase Selectivity Profiling System TK-1 / ADP-Glo, HER4; assay type: biochemical
T3 construct: purchased Promega
Protocol: as §6

InsR = target: T4, InsR (Homo sapiens, UniProt P06213); assay: Kinase Selectivity Profiling System TK-1 / ADP-Glo, InsR; assay type: biochemical
T4 construct: purchased Promega
Protocol: as §6

HER2 = target: T5, HER2 (Homo sapiens, UniProt P04626); assay: Kinase Selectivity Profiling System TK-1 / ADP-Glo, HER2; assay type: biochemical
T5 construct: purchased Promega
Protocol: as §6

IGF1R = target: T6, IGF1R (Homo sapiens, UniProt P08069); assay: Kinase Selectivity Profiling System TK-1 / ADP-Glo, IGF1R; assay type: biochemical
T6 construct: purchased Promega
Protocol: as §6

EGFR = target: T7, EGFR (Homo sapiens, UniProt P00533); assay: Kinase Selectivity Profiling System TK-1 / ADP-Glo, EGFR; assay type: biochemical
T7 construct: purchased Promega
Protocol: as §6

KDR (VEGFR-2) = target: T8, KDR (VEGFR-2) (Homo sapiens, UniProt P35968); assay: Kinase Selectivity Profiling System TK-1 / ADP-Glo, KDR; assay type: biochemical
T8 construct: purchased Promega
Protocol: as §6

Bcr–Abl1 kinase = target: T9, Bcr–Abl1 kinase (Homo sapiens, UniProt P00519); assay: Abl1 Kinase Enzyme System / ADP-Glo kinase assay; assay type: biochemical; details: ATP 50 μM; for inhibition at 0.5 µM: 0.5 µM compound; for inhibition at 10 µM: 10 µM compound
T9 construct: purchased Promega
Protocol: as §6

T7 sequence (P00533 25-1210): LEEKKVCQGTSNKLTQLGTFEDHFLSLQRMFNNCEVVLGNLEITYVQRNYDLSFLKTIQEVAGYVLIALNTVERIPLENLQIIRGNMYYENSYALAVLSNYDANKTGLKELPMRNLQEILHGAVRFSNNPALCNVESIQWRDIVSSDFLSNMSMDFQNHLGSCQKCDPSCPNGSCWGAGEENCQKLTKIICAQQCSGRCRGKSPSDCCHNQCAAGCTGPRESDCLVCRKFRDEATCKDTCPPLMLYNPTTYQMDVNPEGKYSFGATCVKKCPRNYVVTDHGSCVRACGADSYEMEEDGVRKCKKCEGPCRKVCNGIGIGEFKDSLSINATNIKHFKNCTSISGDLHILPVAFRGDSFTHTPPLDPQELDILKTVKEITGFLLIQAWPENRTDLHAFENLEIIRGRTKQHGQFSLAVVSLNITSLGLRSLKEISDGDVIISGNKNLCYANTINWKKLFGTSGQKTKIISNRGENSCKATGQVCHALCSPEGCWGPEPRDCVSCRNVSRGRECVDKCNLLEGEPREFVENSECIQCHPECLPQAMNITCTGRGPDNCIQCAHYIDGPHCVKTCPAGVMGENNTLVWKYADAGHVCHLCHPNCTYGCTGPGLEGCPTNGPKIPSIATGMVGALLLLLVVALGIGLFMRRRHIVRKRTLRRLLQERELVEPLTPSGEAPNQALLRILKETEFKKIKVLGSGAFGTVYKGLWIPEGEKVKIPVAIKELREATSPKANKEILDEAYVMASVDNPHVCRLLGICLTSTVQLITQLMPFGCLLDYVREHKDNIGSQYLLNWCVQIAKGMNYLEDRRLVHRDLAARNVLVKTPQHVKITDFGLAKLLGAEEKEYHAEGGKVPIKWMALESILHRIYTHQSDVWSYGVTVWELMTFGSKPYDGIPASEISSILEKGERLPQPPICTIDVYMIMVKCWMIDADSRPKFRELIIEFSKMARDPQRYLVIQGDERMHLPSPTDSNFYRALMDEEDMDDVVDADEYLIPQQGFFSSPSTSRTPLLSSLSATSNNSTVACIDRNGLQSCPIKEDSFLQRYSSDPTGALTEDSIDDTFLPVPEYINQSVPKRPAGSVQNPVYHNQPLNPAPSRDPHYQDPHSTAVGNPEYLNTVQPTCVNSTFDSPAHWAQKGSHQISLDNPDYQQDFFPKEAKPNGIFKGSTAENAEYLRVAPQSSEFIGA
T3 sequence (Q15303 26-1308): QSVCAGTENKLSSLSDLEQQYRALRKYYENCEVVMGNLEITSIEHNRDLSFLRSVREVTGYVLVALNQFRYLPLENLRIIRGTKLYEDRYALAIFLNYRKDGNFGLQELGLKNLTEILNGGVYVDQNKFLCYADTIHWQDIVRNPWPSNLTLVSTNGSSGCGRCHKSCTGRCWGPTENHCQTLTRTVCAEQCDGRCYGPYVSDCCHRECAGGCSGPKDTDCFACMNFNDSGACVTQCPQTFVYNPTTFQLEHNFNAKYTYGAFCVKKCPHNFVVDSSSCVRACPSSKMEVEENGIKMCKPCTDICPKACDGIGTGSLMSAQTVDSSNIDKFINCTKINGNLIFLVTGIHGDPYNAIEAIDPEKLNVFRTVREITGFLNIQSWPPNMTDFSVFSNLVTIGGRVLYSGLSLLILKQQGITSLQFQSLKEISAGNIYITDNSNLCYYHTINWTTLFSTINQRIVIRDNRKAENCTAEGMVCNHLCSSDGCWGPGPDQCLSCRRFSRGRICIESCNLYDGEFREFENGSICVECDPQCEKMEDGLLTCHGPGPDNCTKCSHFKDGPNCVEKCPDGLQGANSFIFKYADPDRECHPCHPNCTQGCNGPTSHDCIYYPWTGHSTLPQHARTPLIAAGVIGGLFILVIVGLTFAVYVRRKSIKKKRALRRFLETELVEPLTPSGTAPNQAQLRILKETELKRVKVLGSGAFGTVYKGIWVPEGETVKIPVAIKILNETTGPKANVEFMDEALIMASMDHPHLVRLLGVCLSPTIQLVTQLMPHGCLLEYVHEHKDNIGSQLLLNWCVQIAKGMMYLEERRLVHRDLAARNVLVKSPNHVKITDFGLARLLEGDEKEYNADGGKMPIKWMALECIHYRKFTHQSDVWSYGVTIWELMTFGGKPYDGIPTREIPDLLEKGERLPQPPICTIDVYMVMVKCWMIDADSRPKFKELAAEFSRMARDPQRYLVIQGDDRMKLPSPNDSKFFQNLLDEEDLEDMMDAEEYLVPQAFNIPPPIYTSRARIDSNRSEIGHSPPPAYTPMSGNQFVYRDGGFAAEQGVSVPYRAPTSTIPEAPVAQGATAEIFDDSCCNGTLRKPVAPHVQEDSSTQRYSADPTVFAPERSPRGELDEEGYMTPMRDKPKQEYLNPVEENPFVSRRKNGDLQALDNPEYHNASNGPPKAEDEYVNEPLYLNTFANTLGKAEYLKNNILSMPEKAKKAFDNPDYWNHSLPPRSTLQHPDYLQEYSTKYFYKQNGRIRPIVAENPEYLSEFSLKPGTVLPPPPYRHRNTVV
T1 sequence (P16234 24-1089): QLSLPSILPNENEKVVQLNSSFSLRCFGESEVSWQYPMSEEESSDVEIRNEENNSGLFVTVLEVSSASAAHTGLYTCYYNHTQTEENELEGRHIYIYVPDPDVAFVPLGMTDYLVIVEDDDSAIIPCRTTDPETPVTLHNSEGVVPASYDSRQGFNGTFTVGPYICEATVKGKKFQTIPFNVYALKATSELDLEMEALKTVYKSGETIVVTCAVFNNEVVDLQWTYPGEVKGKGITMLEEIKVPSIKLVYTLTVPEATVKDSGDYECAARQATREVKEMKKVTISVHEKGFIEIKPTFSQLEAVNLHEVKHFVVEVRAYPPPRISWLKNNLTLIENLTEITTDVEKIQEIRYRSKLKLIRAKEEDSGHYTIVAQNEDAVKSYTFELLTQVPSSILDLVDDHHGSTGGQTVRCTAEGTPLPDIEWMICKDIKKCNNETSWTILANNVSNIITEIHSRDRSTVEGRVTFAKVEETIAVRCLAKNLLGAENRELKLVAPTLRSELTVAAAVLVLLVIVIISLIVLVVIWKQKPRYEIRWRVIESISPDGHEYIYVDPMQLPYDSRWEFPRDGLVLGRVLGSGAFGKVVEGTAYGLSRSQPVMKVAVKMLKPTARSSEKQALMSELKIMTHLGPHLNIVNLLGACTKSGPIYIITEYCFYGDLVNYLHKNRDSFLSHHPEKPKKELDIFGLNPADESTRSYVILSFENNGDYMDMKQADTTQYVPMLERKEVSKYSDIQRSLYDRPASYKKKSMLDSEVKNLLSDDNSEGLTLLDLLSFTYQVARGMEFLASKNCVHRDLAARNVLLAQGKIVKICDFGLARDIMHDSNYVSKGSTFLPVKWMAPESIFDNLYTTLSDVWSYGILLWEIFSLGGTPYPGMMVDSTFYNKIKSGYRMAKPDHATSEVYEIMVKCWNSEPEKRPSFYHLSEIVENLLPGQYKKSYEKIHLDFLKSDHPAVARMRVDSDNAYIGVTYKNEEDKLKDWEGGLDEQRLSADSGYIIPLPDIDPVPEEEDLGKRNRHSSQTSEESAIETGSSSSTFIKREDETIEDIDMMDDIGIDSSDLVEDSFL
T8 sequence (P35968 20-1356): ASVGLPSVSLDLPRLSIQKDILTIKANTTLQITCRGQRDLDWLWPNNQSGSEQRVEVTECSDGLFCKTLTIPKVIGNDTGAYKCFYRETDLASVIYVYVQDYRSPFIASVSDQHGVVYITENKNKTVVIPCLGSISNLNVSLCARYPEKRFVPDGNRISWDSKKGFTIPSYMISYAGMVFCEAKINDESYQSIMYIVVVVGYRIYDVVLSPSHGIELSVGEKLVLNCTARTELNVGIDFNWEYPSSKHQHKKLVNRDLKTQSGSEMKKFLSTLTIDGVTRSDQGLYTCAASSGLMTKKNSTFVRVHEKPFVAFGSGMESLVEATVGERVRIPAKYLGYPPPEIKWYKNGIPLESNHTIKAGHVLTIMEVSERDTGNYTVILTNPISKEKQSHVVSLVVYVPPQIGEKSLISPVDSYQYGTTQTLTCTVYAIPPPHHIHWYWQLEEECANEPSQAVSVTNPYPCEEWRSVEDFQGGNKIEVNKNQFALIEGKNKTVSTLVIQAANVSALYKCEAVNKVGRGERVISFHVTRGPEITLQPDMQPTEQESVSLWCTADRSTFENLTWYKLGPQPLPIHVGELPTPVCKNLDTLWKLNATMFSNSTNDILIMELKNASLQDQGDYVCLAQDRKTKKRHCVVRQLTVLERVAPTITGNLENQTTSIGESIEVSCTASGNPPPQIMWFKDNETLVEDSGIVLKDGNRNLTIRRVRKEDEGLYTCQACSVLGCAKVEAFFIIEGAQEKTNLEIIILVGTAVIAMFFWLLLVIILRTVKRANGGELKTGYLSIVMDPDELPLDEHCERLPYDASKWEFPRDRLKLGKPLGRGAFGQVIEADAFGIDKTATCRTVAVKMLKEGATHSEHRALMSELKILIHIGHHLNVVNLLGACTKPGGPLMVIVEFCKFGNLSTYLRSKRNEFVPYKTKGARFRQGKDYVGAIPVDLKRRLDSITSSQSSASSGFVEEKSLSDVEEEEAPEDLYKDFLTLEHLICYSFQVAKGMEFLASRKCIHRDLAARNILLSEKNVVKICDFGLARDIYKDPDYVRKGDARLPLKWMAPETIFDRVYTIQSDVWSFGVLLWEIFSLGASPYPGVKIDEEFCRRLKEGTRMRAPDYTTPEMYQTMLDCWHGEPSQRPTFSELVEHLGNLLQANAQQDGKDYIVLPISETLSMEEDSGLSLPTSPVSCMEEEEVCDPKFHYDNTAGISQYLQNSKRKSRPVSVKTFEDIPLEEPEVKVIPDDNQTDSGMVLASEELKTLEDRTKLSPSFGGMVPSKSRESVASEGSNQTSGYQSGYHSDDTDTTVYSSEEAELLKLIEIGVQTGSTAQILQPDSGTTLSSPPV

SMILES | IC50 [1] | IC50 [2] | inhibition at 100 µM [3] | IC50 [4] | inhibition at 1 µM (PDGFRα) | inhibition at 1 µM (PDGFRβ) | inhibition at 1 µM (HER4) | inhibition at 1 µM (InsR) | % Inhibition at 1 µM, HER2 (HER2) | inhibition at 1 µM (HER2) | inhibition at 1 µM (IGF1R) | inhibition at 1 µM (EGFR) | melting point | inhibition at 1 µM (KDR (VEGFR-2)) | inhibition at 0.5 µM (Bcr–Abl1 kinase) | inhibition at 10 µM (Bcr–Abl1 kinase)
Cc1cn(-c2cc(NC(=O)c3ccc(C)c(Nc4nccc(-c5cccnc5)n4)c3)cc(C(F)(F)F)c2)cn1 [Nilotinib, nilotinib, reference compound] | 55 µM | 55 µM | 71% | < 0.1 µM |  |  |  |  |  |  |  |  |  |  |  | 
Nc1nc(F)nc2c1ncn2Cc1ccc(C(=O)Nc2cccc(C(F)(F)F)c2)cc1 [Compound 8, 4-((6-Amino-2-fluoro-9H-purin-9-yl)methyl)-N-(3-(trifluoromethyl)phenyl)benzamide] |  | > 50 µM | 33.5% |  | 13% | 32% | 23% | 0% | 26% | 22 to 26% | 5% | 15% | 309 to 311 °C | 14% | 23% | 34%
Cc1ccc(NC(=O)c2ccc(CN3CCN(C)CC3)cc2)cc1Nc1nccc(-c2cccnc2)n1 [Imatinib, imatinib, reference compound] |  |  | 99% |  |  |  |  |  |  |  |  |  |  |  |  | 
Cc1cn(-c2cc(NC(=O)c3ccc(Cn4cnc5c(N)ncnc54)cc3)cc(C(F)(F)F)c2)cn1 [Compound 12, 4-((6-Amino-9H-purin-9-yl)methyl)-N-(3-(4-methyl-1H-imidazol-1-yl)-5-(trifluoromethyl)phenyl) benzamide] |  |  |  |  | 22% | 36% | 0% | 0% |  | 0% | 0% | 17% | 268 to 270 °C | 0% | 38% | 14%
Cc1cn(-c2cc(NC(=O)c3ccc(Cn4cnc5c(N)nc(F)nc54)cc3)cc(C(F)(F)F)c2)cn1 [Compound 11, 4-((6-Amino-2-fluoro-9H-purin-9-yl)methyl)-N-(3-(4-methyl-1H-imidazol-1-yl)-5-(trifluoromethyl)phenyl)benzamide] |  | 29.7 ± 1.19 µM | 93.4% |  | 4% | 0% | 0% | 0% |  | 0% | 0% | 14% | 230 to 232 °C | 12% | 37% | 37%
Nc1ncnc2c1ncn2Cc1ccc(C(=O)Nc2cccc(C(F)(F)F)c2)cc1 [Compound 9, 4-((6-Amino-9H-purin-9-yl)methyl)-N-(3-(trifluoromethyl)phenyl)benzamide] |  |  | 56.8% |  | 45% | 36% | 0% | 0% |  | 0% | 0% | 11% |  | 2% | 39% | 34%
CS(=O)(=O)CCNCc1ccc(-c2ccc3ncnc(Nc4ccc(OCc5cccc(F)c5)c(Cl)c4)c3c2)o1 [Lapatinib, lapatinib, reference compound] |  |  |  |  | 4% | 7% | 94% | 0% |  | 68% | 0% |  |  |  |  | 
Cc1cn(-c2cc(NC(=O)c3ccc(Cn4cnc5c(N)nc(Cl)nc54)cc3)cc(C(F)(F)F)c2)cn1 [Compound 16, 4-((6-Amino-2-chloro-9H-purin-9-yl)methyl)-N-(3-(4-methyl-1H-imidazol-1-yl)-5-(trifluoromethyl)phenyl)benzamide] |  |  | 5.91% |  | 17% | 6% | 0% | 0% |  | 0% | 0% | 13% |  | 12% | 15% | 36%
